Where a name gives a salt, the structure may show the parent alone. Read-outs that look alike come from different tables or passages of the source.
Columns and labels:
[1] = target: central cholinergic receptors; assay: 3H-oxotremorine M binding (displacement from rat brain homogenates); conditions: rat brain homogenate, 40 min at 30° C., pH 7.4, read-out: 3H-Oxo-M IC50
Protocol: The new compounds have high affinity to central cholinergic receptors, as measured by the ability of the compounds to displace tritiated oxotremorine-M from rat brain homogenates. The compounds have also high affinity to central muscarinic M-1 receptors, as defined by their ability to displace tritiated pirenzepine from rat brain homogenates. […]
^3 H-oxotremorine M binding was performed essentially as described by Birdsdall et al., 1980. Briefly, rat brains were homogenized in 100 vol (w/v) 10 mM Na,K-phosphate buffer (pH 7.4) and aliquots incubated with ^3 H-oxotremorine M (84.9 Ci/mmol, NEN) alone or in the presence of test compound in a total volume of 1.5 ml for 40 min. at 30° C. The reaction was stopped by adding 5 ml ice-cold buffer and filtered through Whatman GF/B filters soaked previously in 0.1% polyethylenimin (Sigma) for minimum 30 min. The filters were washed once with the same volume of buffer, transferred to scintillation vials and extracted in scintillation fluid (Pico-fluor 15, Packard) for at least two hours before counted in a liquid scintillation spectrometer (Beckman LS 1800). Non-specific binding was estimated at 10 μM atropine and all estimations made in triplicate. At least two displacement curves were made for each compound tested.

[2] = target: T1, central muscarinic M-1 receptors (Rattus norvegicus, UniProt P08482); assay: biochemical; assay type: binding; conditions: rat brain homogenate, 1.0 nM 3H-pirenzepine, 60 min at 25° C.
T1 sequence (P08482 1-460): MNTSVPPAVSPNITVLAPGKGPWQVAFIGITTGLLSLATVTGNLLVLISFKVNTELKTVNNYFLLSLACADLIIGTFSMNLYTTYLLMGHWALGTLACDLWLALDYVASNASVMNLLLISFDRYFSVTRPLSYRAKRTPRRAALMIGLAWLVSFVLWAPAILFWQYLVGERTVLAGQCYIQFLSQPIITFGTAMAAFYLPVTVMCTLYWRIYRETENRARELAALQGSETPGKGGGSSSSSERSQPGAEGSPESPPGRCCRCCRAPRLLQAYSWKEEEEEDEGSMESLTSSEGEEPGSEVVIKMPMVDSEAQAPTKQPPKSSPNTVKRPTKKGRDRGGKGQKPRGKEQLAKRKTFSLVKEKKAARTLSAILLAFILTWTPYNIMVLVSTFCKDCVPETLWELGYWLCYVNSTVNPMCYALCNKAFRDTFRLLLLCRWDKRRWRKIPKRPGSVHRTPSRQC
Protocol: ^3 H-pirenzepine binding was performed essentially as described by Watson et al., 1983, the conditions being very much the same as for ^3 H-oxotremorine binding, except that aliquots were incubated with 1.0 nM ^3 H-pirenzepine for 60 min. at 25° C. and that the reaction was stopped by direct filtration followed by 3 washes with 4 ml buffer.

[3] = after peripheral administration; cited from earlier work
[4] = cited from earlier work
[5] = after peripheral administration; cited from earlier work; remark: listed apart in the source

Compound	IC50 [2] [nM]	IC50 [1] [nM]	also measured
C#CCOc1nsc2c1CNCC2C (single isomer, unassigned; (-)) [Compound 21, (-)-7-Methyl-3-(2-propynyloxy)-4,5,6,7-tetrahydroisothiazolo[4,5-c]pyridine, fumarate]	8.1		IC50 ([1]; fumarate): 0.93 nM
C#CCOc1noc2c1CNCC2C (single isomer, unassigned; (+)) [(+)-O-propargyl-7-Me-THPO, (+)7-methyl-3-(2-propynyloxy)-4,5,6,7-tetrahydroisoxazolo[4,5c]pyridine, reference compound]	61	18	
C#CCOc1nsc2c1CNCC2 [Compound 8, 3-(2-Propynyloxy)-4,5,6,7-tetrahydroisothiazole[4,5-c]pyridine, hemifumarate]	53	6.3	
C#CCOc1nsc2c1CN(C)CC2C (single isomer, unassigned; (-)) [Compound 24, (-)-5,7-Dimethyl-3-(2-propynyloxy)-4,5,6,7-tetrahydroisothiazolo[4,5-c]pyridine, oxalate]	4.3		IC50 ([1]; oxalate): 3.8 nM
COc1nsc2c1CNCC2 [Compound 3, 3-Methoxy-4,5,6,7-tetrahydroisothiazole[4,5-c]pyridine Hydrochloride]	1700	18	
C#CCOc1nsc2c1CNCC2C (stereo not shown) [Compound 19, 7-Methyl-3-(2-propynyloxy)-4,5,6,7-tetrahydroisothiazolo[4,5-c]pyridine, fumarate]	6.9	1.8	
C=CCOc1nsc2c1CNCC2C (stereo not drawn) [Compound 25, (-+)-7-Methyl-3-(2-propenyloxy)-4,5,6,7-tetrahydroisothiazolo[4,5-c]pyridine, fumarate]	11	5.3	
C#CCOc1nsc2c1CN(C)CC2C (single isomer, unassigned; (+)) [Compound 23, (+)-5,7-Dimethyl-3-(2-propynyloxy)-4,5,6,7-tetrahydroisothiazolo[4,5-c]pyridine, oxalate]	14		IC50 ([1]; oxalate): 18 nM
COC(=O)C1=CCCN(C)C1 [Arecoline, methyl 1-methyl-1,2,5,6-tetrahydropyridine-3-carboxylate]		1.9	penetration of the BBB [3]: capable of penetrating the BBB after peripheral administration; hydrolysis of the ester group in vivo [4]: very rapidly hydrolyzed in vivo; central effects [5]: very weak and frequently negligible central effects
C#CCOc1nsc2c1CN(C)CC2C (stereo not drawn) [Compound 22, (-+)-5,7-Dimethyl-3-(2-propynyloxy)-4,5,6,7-tetrahydroisothiazolo[4,5-c]pyridine, oxalate]	6.7	5.3	
COc1nsc2c1CNCC2C (stereo not shown) [Compound 18, 3-Methoxy-7-methyl-4,5,6,7-tetrahydroisothiazolo[4,5-c]pyridine, fumarate]	130	24	
CCOc1nsc2c1CNCC2 [Compound 5, 3-Ethoxy-4,5,6,7-tetrahydroisothiazolo[4,5-c]pyridine, maleate]	370	29	
C#CCOc1nsc2c1CNCC2C (single isomer, unassigned; (+)) [Compound 20, (+)-7-Methyl-3-(2-propynyloxy)-4,5,6,7-tetrahydroisothiazolo[4,5-c]pyridine, fumarate]	5.5		IC50 ([1]; fumarate): 1.6 nM

From patent publication US4923880A, “4,5,6,7-Tetrahydroisothiazolo (4,5-c) pyridine derivatives” (H. Lundbeck A/S, priority 1988, dated 1990)
